Source: PubChem BioAssay AID276 (DTP/NCI, 2004)
“And” between values parts separate entries of the source, which are not always exact repeats. Equal entries are not always repeated. Toxic doses and inconclusive results are not listed. The calls were made as follows: active = survival T/C of 150% or more; inactive = T/C below 125% in these data. Positions of bridges follow the written chain, without caps; N, C: chain ends. Residues, ends and D or L forms follow the SMILES beside them.

Tested on: B6C3F1 mice, Lewis lung carcinoma iv, survival T/C
Assay: NCI In Vivo Anticancer Drug Screen. Data for tumor model Lewis Lung Carcinoma (intravenous) in B6C3F1 mice
Conditions: endpoint: median survival time, higher = longer survival
How it was run: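 Transplantable tumor in mice; compound treated vs vehicle controls; read-out survival; value = treated/control (T/C).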

[1] = dose: 6.25 mg/kg/injection, schedule: Q01DX009 (ip), vehicle: water
[2] = dose: 12.5 mg/kg/injection, schedule: Q01DX009 (ip), vehicle: water
[3] = dose: 25.0 mg/kg/injection, schedule: Q01DX009 (ip), vehicle: water
[4] = dose: 3.12 mg/kg/injection, schedule: Q01DX009 (ip), vehicle: water
[5] = dose: 50.0 mg/kg/injection, schedule: Q01DX009 (ip), vehicle: water

Measured: T/C

Nc1n[n+](-c2ccccc2)no1
inactive: dose: 3.13 mg/kg/injection, schedule: Q01DX009 (ip), vehicle: water 108 % of control | [1] 100 % of control | [2] 113 % of control | [3] 114 % of control

COc1cccc2c1C(=O)c1c(O)c3c(c(O)c1C2=O)C[C@@](O)(/C(C)=N\O)C[C@@H]3OC1CC(N)C(O)C(C)O1 (stereo partly drawn)
inactive: [4] 90 % of control | [1] 86 % of control | [2] 90 % of control

C1CN1c1nc(N2CC2)nc(N2CC2)n1
inactive: dose: 0.06 mg/kg/injection, schedule: Q01DX009 (ip), vehicle: suspension in saline 96 % of control | dose: 0.12 mg/kg/injection, schedule: Q01DX009 (ip), vehicle: suspension in saline 92 % of control | dose: 0.25 mg/kg/injection, schedule: Q01DX009 (ip), vehicle: suspension in saline 101 % of control | dose: 0.5 mg/kg/injection, schedule: Q01DX009 (ip), vehicle: suspension in saline 106 % of control | dose: 1.0 mg/kg/injection, schedule: Q01DX009 (ip), vehicle: suspension in saline 121 % of control

C[C@]12C=CC(=O)C=C1CC[C@@H]1[C@@H]2C(=O)C[C@@]2(C)[C@H]1CC[C@]2(O)C(=O)CO
inactive: [2] 100 % of control | [3] 100 % of control | [5] 96 % of control | dose: 100.0 mg/kg/injection, schedule: Q01DX009 (ip), vehicle: water 98 % of control | dose: 200.0 mg/kg/injection, schedule: Q01DX009 (ip), vehicle: water 94 % of control

C[Si](C)(CCl)N[Si](C)(C)CCl
inactive: dose: 25.0 mg/kg/injection, schedule: Q01DX009 (ip), vehicle: saline with Tween-80 104 % of control | dose: 50.0 mg/kg/injection, schedule: Q01DX009 (ip), vehicle: saline with Tween-80 99 % of control | dose: 100.0 mg/kg/injection, schedule: Q01DX009 (ip), vehicle: saline with Tween-80 107 % of control | dose: 400.0 mg/kg/injection, schedule: Q01DX009 (ip), vehicle: saline with Tween-80 105 % of control

COc1cc(NCc2ccc3nc(N)nc(N)c3c2C)cc(OC)c1OC
inactive: [4] 94 % of control | [1] 102 % of control | [2] 97 % of control and 124 % of control | [3] 101 % of control and 111 % of control | [5] 113 % of control and 117 % of control

COc1nc(C(Cl)(Cl)Cl)c(Cl)c(OC)c1Cl
inactive: dose: 25.0 mg/kg/injection, schedule: Q01DX008 (ip), vehicle: Klucel (hydroxypropylcellulose) (HPC) 120 % of control | dose: 50.0 mg/kg/injection, schedule: Q01DX008 (ip), vehicle: Klucel (hydroxypropylcellulose) (HPC) 113 % of control | dose: 100.0 mg/kg/injection, schedule: Q01DX008 (ip), vehicle: Klucel (hydroxypropylcellulose) (HPC) 113 % of control

CCC(C)C1NC(=O)C(CC(C)C)NC(=O)C(C(C)C)NC(=O)C2CSSCC(NC1=O)C(=O)N2 (stereo not drawn) (cyclo(CCVLI); disulfide 1-2; configuration not given here)
inactive: dose: 31.25 micrograms/kg/injection, schedule: Q01DX009 (ip), vehicle: Klucel (hydroxypropylcellulose) (HPC) 93 % of control | dose: 62.5 micrograms/kg/injection, schedule: Q01DX009 (ip), vehicle: Klucel (hydroxypropylcellulose) (HPC) 99 % of control | dose: 125.0 micrograms/kg/injection, schedule: Q01DX009 (ip), vehicle: Klucel (hydroxypropylcellulose) (HPC) 93 % of control | dose: 250.0 micrograms/kg/injection, schedule: Q01DX009 (ip), vehicle: Klucel (hydroxypropylcellulose) (HPC) 98 % of control | dose: 500.0 micrograms/kg/injection, schedule: Q01DX009 (ip), vehicle: Klucel (hydroxypropylcellulose) (HPC) 88 % of control | dose: 1000.0 micrograms/kg/injection, schedule: Q01DX009 (ip), vehicle: Klucel (hydroxypropylcellulose) (HPC) 100 % of control

Nc1nnc[se]1
inactive: dose: 3.12 mg/kg/injection, schedule: Q01DX009 (ip), vehicle: saline with Tween-80 122 % of control | dose: 6.25 mg/kg/injection, schedule: Q01DX009 (ip), vehicle: saline with Tween-80 123 % of control | dose: 12.5 mg/kg/injection, schedule: Q01DX009 (ip), vehicle: saline with Tween-80 123 % of control

COc1ccc(C(=O)C(CN(C)C)CN(C)C)cc1
inactive: dose: 1.56 mg/kg/injection, schedule: Q01DX009 (ip), vehicle: saline 96 % of control | dose: 3.12 mg/kg/injection, schedule: Q01DX009 (ip), vehicle: saline 102 % of control | dose: 6.25 mg/kg/injection, schedule: Q01DX009 (ip), vehicle: saline 102 % of control | dose: 12.5 mg/kg/injection, schedule: Q01DX009 (ip), vehicle: saline 105 % of control | dose: 25.0 mg/kg/injection, schedule: Q01DX009 (ip), vehicle: saline 105 % of control
